{"source": "paper PMC10002517", "about": "“Inhibition of Transglutaminase 2 as a Therapeutic Strategy in Celiac Disease—In Vitro Studies in Intestinal Cells and Duodenal Biopsies” (International Journal of Molecular Sciences, 2023)", "key": {"[1]": {"test_system": "transepithelial passage of P56-88 in Caco-2 cells", "experiment": "Transepithelial transport of promofluor-conjugated gliadin peptide P56-88 across Caco-2 monolayers (fluorometry)", "type": "cell-based, human", "conditions": "3 h", "method": "(§1) Transepithelial transport of immunogenic and toxic gliadin peptides were examined in Caco-2 cells 7–14 days after confluency. Caco-2 cells were seeded on semi-permeable transwell supports (ThinCert, culture surface: 33.6 mm², pore size: 0.4 µm) in 24-well plates (Greiner Bio One, Pleidelsheim, Germany). Prior to the transport experiments, the integrity of the cell monolayer was tested by measuring the transepithelial electric resistance (TEER) using a volt-ohm meter (Millipore, Schwalbach, Germany). Monolayers with insufficient TEER (<350 Ω/cm^2) were omitted. The synthesis and purification of promofluor-conjugated gliadin peptides were described elsewhere. Cells were either incubated with the immunogenic peptide P56-88 ([…]) or the toxic gliadin peptide P31-43 (LGQQQPFPPQQPY), 7 µg/mL each, in Hank’s balanced salt solution (HBSS) for 3 h. To investigate the role of TG2 on the transport of gliadin peptides, incubation was performed in the presence of ERW1041 and PX-12. After 3 h, basal and apical supernatants were collected, and the relative fluorescence of the basal compartment was quantified using a FLUOstar Optima (BMG Labtech) microplate reader. Background subtraction was performed against conditions, where no labeled peptides were used. Normalization was performed against conditions, where no inhibitors were used."}, "[2]": {"test_system": "uptake of P56-88 by Caco-2 cells", "experiment": "Epithelial uptake of P56-88 by Caco-2 cells (confocal microscopy)", "type": "cell-based, human", "conditions": "1 h incubation; z-stack imaging and 3D reconstruction", "method": "For microscopic evaluation, Caco-2 cells were seeded on polymer-covered µ-slides (80826, Ibidi) and incubated for 1 h with labeled gliadin peptides in the presence of TG2 inhibitors. After three washes with PBS, cells were fixed with 4% paraformaldehyde. Nuclear staining was performed for 10 min using Hoechst fluorescent stain (1:1000 in PBS). Imaging was done using a confocal laser scanning microscope (TE2000-E, Nikon) and a 60× Plan Apo (NA 1.41) immersion oil objective. Processing of z-stacks, including 3D reconstruction, was performed using ImageJ [46]. For quantitation, z-stack images were taken with the same microscope settings. Using ImageJ, maximum intensity projections were obtained of the z-stack images, and the fluorescence intensity was measured within the whole image."}, "actin rearrangement": {"test_system": "actin rearrangement", "conditions": "cited from earlier work", "from_the_text": "(§2) Even though our results underline the significance of TG2 inhibition, further research is needed to investigate the effects of those inhibitors on gliadin-induced inflammation. In recent studies, these inflammatory mechanisms were only partially mitigated by inhibition of TG2."}, "[3]": {"test_system": "epithelial infiltration of CD8+ T cells and mucosal damage", "conditions": "cited from earlier work", "from_the_text": "as §2"}, "[4]": {"test_system": "gliadin peptide uptake (P31-43 and P57-68)", "conditions": "cited from earlier work", "from_the_text": "Since TG2 is expressed on the surface of epithelial cells and plays a role in transcytosis, we aimed to investigate the effect of TG2 inhibitors on the epithelial uptake of gliadin peptides. First, we confirmed the results from Caputo et al. and Zimmermann et al. by showing that the translocation of P31-43, but not of P56-88, was inhibited by the endocytosis inhibitor MBCD [21, 37]."}, "[5]": {"test_system": "transepithelial passage of P31-43 in Caco-2 cells", "experiment": "Transepithelial transport of promofluor-conjugated gliadin peptide P31-43 across Caco-2 monolayers (fluorometry)", "type": "cell-based, human", "conditions": "in the presence of MBCD; 7 µg/mL peptide apical in HBSS, 3 h; normalized to no inhibitor; mean ± SD, n = 3", "method": "as §1"}}}
{"molecule": "LQLQPFPQPQLPYPQPQLPYPQPQLPYPQPQPF [P56-88]", "values": [{"measurement": "translocation from the apical to the basal compartment", "setting": "[1]; Caco-2 monolayer on transwell, A-B, 7 µg/mL in HBSS, TEER >= 350 Ω/cm^2, fluorometry", "result": "detected in the basal compartment"}, {"measurement": "cellular localization of the peptide", "setting": "[2]", "result": "localized in the supranuclear cell region"}]}
{"molecule": "CC(=O)CSc1n(C)cc[n+]1C.[Cl-]", "note": "[R283]", "values": [{"measurement": "effect on actin rearrangement after treatment with P31-43", "setting": "actin rearrangement", "result": "did not prevent actin rearrangement"}, {"measurement": "effect on epithelial infiltration of CD8+ T cells and mucosal damage", "setting": "[3]", "result": "did not mitigate"}]}
{"molecule": "CN(C)c1cccc2c(S(=O)(=O)NCCCCCN)cccc12", "note": "[monodansyl cadaverine]", "values": [{"measurement": "effect on gliadin peptide uptake (P31-43 and P57-68)", "setting": "[4]", "result": "did not show an effect"}]}
{"molecule": "methyl-β-cyclodextrin [MBCD]", "values": [{"measurement": "transepithelial passage of P31-43 (relative basal fluorescence)", "setting": "[5]", "result": "58 ± 7", "unit": "%"}, {"measurement": "transepithelial transport of P56-88 (relative basal fluorescence)", "setting": "[1]; in the presence of MBCD, 7 µg/mL peptide apical in HBSS, normalized to no inhibitor, n.s., mean ± SD, n = 3", "result": "89 ± 13", "unit": "%"}]}
